{"source": "patent US11654108B1", "about": "“Sennoside medicated chews” (MEDICATED CHEWS, LLC, priority 2022, dated 2023)", "origin": "cited, not measured here", "key": {"[1]": {"conditions": "after oral administration of sennosides"}}}
{"substance": "sennosides", "values": [{"measurement": "metabolites excreted in urine", "setting": "[1]", "value": "3-6%"}, {"measurement": "sennosides excreted in feces as polymers (polyquinones)", "setting": "[1]", "value": 90, "unit": "%"}, {"measurement": "unchanged sennosides, sennidins, rheinanthrone and rhein excreted in feces", "setting": "[1]", "value": "2-6%"}, {"measurement": "absorption in the upper gut / splitting by human digestive enzymes", "setting": "upper gut, human digestive enzymes", "value": "neither absorbed in the upper gut nor split by human digestive enzymes"}]}
